Results from ChEMBL document CHEMBL1240326, “ATP non-competitive IGF-1 receptor kinase inhibitors as lead anti-neoplastic and anti-papilloma agents” (Eur J Pharmacol, 2007).
pIC50: −log10 of the molar value.

Key:
[1] = molecular target: Proto-oncogene tyrosine-protein kinase Src (Homo sapiens, UniProt P12931); experiment: Inhibition of human GST-fused Src-mediated Poly Glu4Tyr phosphorylation by ELISA
cells = conditions: Homo sapiens, HF1, 48 h
Description: Growth inhibition of human HF1 cells transfected with HPV16 after 48 hrs by micro culture methylene blue assay

Keratinocyte = experiment: cells; conditions: Homo sapiens, 72 h
Description: Growth inhibition of human primary keratinocytes after 72 hrs by micro culture methylene blue assay

Proto-oncogene tyrosine-protein kinase Src, sequence (P12931 2-536 limits assumed): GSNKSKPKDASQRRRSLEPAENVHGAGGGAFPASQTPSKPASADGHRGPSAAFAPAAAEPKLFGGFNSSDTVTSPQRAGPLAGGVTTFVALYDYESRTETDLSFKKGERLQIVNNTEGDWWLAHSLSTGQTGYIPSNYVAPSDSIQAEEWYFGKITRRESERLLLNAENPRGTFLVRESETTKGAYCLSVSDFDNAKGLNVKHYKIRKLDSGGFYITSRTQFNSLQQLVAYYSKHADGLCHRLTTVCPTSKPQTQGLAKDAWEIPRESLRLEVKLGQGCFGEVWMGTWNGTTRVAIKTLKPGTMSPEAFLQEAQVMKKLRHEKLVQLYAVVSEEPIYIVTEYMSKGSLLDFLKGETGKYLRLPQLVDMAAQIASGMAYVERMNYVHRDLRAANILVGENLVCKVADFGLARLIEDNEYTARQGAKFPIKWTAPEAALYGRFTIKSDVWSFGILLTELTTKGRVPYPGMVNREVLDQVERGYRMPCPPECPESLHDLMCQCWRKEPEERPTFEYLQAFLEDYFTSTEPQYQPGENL

| pIC50 [1] | pIC50 (cells) | pIC50 (Keratinocyte) | SMILES |
| --- | --- | --- | --- |
| 5.73 | 3.77 | 4.14 | Oc1ccc(CNc2ccc3c(c2)OCO3)cc1O |
| 6.08 | 3.97 | 4.74 | Oc1ccc(CN(Cc2ccc(O)c(O)c2)c2ccc3c(c2)OCO3)cc1O |
|  | 3.41 |  | N#C/C(=C\c1ccc(O)c(O)c1)C(=O)c1ccc(O)c(O)c1 |
